Molecular target: human Cav2.2 (Homo sapiens, UniProt Q00975)
Assay: Assessment of calcium channel activity using FLIPR (Ca2+ influx in IMR32 cells)
Format: cell-based
Conditions: 3 minute pre-incubation with compound (*), 2 μM nifedipine, depolarized with 80 mM KCl
Summary of the method: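 IMR32 neuroblastoma cells seeded at 1-1.2×10^5 cells/well and grown 48 h at 37 °C before FLIPR Ca2+ influx read. Percent inhibition at each concentration vs no-inhibitor activity; IC50 by non-linear sigmoidal dose-response fit.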

Chain of human Cav2.2 (Q00975 whole entry): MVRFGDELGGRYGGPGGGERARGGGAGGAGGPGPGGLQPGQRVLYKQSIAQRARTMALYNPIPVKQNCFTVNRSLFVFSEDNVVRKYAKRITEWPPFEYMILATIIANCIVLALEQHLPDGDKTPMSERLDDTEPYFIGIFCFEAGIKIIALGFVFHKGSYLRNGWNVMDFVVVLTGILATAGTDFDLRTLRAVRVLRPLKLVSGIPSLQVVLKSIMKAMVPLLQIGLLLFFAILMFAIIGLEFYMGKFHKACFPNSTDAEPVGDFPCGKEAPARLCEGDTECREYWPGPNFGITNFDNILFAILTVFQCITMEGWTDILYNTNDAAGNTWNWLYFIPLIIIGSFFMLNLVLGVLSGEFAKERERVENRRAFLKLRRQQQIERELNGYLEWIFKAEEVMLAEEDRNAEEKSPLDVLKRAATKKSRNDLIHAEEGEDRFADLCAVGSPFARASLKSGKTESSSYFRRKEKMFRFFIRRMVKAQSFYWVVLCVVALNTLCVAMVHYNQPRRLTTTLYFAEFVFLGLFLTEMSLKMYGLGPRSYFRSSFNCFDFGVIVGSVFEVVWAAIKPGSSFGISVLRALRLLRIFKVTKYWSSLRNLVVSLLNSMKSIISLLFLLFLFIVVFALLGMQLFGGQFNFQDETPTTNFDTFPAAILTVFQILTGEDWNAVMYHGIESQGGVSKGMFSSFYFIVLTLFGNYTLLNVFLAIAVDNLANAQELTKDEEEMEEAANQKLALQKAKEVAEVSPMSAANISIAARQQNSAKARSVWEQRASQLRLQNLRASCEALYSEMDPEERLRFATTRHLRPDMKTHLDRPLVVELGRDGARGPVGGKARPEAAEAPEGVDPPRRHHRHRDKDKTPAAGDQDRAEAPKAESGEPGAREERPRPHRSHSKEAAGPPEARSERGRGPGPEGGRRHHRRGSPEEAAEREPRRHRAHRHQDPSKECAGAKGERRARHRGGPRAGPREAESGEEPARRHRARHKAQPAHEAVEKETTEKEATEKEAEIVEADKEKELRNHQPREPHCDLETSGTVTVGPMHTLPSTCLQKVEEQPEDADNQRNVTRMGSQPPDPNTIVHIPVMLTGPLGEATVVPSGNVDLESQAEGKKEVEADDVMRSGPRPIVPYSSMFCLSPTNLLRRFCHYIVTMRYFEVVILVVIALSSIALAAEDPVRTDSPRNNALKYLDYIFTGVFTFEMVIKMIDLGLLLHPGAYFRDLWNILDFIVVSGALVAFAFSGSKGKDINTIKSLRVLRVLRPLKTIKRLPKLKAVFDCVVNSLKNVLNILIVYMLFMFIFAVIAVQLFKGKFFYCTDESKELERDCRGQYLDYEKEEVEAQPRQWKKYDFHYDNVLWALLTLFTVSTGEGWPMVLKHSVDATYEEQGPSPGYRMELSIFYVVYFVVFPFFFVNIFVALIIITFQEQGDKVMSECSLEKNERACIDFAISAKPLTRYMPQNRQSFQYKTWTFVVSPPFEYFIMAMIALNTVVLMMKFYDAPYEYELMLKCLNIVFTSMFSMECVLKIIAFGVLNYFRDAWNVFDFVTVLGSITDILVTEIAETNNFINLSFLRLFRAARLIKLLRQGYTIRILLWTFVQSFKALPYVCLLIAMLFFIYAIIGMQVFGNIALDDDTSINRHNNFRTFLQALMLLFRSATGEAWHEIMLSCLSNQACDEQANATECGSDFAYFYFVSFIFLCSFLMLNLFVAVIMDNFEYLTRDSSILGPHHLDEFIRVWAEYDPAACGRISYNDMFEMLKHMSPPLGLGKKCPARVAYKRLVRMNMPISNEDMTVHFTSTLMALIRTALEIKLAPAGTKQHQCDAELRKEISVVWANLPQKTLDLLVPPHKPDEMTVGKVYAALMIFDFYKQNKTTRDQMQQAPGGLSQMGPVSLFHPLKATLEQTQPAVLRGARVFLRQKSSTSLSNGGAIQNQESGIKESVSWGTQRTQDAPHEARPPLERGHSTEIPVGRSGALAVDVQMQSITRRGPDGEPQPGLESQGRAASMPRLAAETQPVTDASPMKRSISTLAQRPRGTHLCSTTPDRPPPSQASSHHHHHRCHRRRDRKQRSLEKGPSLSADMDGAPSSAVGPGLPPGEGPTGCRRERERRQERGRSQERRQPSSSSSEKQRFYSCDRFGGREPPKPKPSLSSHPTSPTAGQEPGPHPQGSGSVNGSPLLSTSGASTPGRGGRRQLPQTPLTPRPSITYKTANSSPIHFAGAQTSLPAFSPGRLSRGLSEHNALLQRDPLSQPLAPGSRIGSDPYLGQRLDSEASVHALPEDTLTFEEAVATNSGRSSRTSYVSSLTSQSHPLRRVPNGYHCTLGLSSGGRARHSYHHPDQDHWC
Chain of human Cav2.2 (P54289 25-946 partner limits assumed): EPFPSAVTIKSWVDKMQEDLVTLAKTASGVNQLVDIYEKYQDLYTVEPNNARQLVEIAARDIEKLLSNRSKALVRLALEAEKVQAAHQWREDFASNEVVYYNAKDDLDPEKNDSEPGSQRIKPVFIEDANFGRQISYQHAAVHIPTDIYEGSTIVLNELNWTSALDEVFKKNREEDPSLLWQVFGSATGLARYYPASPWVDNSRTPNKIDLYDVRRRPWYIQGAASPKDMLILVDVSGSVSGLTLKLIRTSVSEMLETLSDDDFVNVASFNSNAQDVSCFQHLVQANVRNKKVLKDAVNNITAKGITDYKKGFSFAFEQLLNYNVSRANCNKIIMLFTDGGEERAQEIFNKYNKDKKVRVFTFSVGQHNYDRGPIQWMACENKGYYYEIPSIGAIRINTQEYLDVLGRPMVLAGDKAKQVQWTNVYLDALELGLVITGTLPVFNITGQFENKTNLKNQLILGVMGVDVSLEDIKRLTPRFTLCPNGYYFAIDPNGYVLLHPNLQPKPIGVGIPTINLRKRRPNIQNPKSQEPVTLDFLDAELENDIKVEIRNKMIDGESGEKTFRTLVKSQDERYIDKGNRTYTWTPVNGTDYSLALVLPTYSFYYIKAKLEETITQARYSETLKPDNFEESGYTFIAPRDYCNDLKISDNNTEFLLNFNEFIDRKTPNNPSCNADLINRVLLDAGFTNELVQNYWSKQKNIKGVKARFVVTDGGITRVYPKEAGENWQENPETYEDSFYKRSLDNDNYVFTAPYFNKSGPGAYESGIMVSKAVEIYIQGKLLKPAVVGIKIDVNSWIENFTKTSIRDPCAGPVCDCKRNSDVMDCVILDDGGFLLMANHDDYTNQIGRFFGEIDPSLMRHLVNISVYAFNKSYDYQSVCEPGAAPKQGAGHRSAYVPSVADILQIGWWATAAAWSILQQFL
Chain of human Cav2.2 (P54289 947-1103 partner limits assumed): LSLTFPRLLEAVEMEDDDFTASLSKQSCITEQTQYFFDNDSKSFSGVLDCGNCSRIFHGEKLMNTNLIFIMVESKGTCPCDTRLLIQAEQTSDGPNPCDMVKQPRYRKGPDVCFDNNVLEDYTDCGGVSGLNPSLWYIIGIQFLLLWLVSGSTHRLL
Chain of human Cav2.2 (P54284 whole entry partner): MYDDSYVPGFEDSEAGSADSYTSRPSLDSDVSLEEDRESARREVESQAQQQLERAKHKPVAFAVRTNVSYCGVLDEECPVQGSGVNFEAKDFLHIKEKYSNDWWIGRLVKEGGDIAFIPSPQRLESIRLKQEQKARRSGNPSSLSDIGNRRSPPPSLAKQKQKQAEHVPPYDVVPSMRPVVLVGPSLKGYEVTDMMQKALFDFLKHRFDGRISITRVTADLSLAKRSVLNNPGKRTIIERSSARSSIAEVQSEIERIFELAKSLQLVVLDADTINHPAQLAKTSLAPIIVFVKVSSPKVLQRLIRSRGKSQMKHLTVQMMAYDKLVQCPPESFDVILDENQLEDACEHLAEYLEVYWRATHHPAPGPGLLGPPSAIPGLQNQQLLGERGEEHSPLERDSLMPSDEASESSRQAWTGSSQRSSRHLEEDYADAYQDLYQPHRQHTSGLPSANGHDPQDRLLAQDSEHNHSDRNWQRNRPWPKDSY

SMILES	IC50
CC(C)C(C(=O)N[C@H]1CC[C@@H]2CN(Cc3ccc(C(F)(F)F)c(F)c3)C[C@@H]21)c1ccccc1 (stereo partly drawn) [Example 101, N-{(3aR,4S,6aS)-2-[3-fluoro-4-(trifluoromethyl)benzyl]octahydrocyclopenta[c]pyrrol-4-yl}-3-methyl-2-phenylbutanamide]	4700 nM
CC(C)C(C(=O)N[C@H]1CC[C@@H]2CN(Cc3ccncc3)C[C@@H]21)c1ccccc1 (stereo partly drawn) [Example 103, 3-methyl-2-phenyl-N-[(3aR,4S,6aS)-2-(pyridin-4-ylmethyl)octahydrocyclopenta[c]pyrrol-4-yl]butanamide]	31000 nM
CC(C)C(C(=O)N[C@H]1CC[C@@H]2CN(CCCc3cccc(Cl)c3)C[C@@H]21)c1ccccc1 (stereo partly drawn) [Example 109, N-{(3aR,4S,6aS)-2-[3-(3-chlorophenyl)propyl]octahydrocyclopenta[c]pyrrol-4-yl}-3-methyl-2-phenylbutanamide]	9000 nM
Cc1cccc(CCCN2C[C@H]3CC[C@H](NC(=O)C(c4ccccc4)C(C)C)[C@H]3C2)c1 (stereo partly drawn) [Example 110, 3-methyl-N-{(3aR,4S,6aS)-2-[3-(3-methylphenyl)propyl]octahydrocyclopenta[c]pyrrol-4-yl}-2-phenylbutanamide]	2000 nM
CC(C)C(C(=O)N[C@H]1CC[C@@H]2CN(CCCc3cccc(C(F)(F)F)c3)C[C@@H]21)c1ccccc1 (stereo partly drawn) [Example 111, 3-methyl-2-phenyl-N-((3aR,4S,6aS)-2-{3-[3-(trifluoromethyl)phenyl]propyl}octahydrocyclopenta[c]pyrrol-4-yl)butanamide]	2200 nM
CC(C)C(C(=O)N[C@H]1CC[C@@H]2CN(CCCc3cccc(F)c3)C[C@@H]21)c1ccccc1 (stereo partly drawn) [Example 112, N-{(3aR,4S,6aS)-2-[3-(3-fluorophenyl)propyl]octahydrocyclopenta[c]pyrrol-4-yl}-3-methyl-2-phenylbutanamide]	2800 nM

The remaining lines, values ahead:

IC50	SMILES
5800 nM	CC(C)C(C(=O)N[C@H]1CC[C@@H]2CN(CCCc3ccc(C(C)(C)C)cc3)C[C@@H]21)c1ccccc1 (stereo partly drawn) [Example 106, N-{(3aR,4S,6aS)-2-[3-(4-tert-butylphenyl)propyl]octahydrocyclopenta[c]pyrrol-4-yl}-3-methyl-2-phenylbutanamide]
11300 nM	Cc1ccccc1CCCN1C[C@H]2CC[C@H](NC(=O)C(c3ccccc3)C(C)C)[C@H]2C1 (stereo partly drawn) [Example 108, 3-methyl-N-{(3aR,4S,6aS)-2-[3-(2-methylphenyl)propyl]octahydrocyclopenta[c]pyrrol-4-yl}-2-phenylbutanamide]
3100 nM	CC(C)C(C(=O)N[C@H]1CC[C@@H]2CN(CCCCc3ccccc3)C[C@@H]21)c1ccccc1 (stereo partly drawn) [Example 113, 3-methyl-2-phenyl-N-[(3aR,4S,6aS)-2-(4-phenylbutyl)octahydrocyclopenta[c]pyrrol-4-yl]butanamide]

Same assay, conditions: 60 minute pre-incubation with compound, 2 μM nifedipine, depolarized with 80 mM KCl

SMILES	IC50
CC(C)C(C(=O)N[C@H]1CC[C@@H]2CN(CCCc3ccccc3)C[C@@H]21)c1ccccc1 (stereo partly drawn) [Example 105, 3-methyl-2-phenyl-N-[(3aR,4S,6aS)-2-(3-phenylpropyl)octahydrocyclopenta[c]pyrrol-4-yl]butanamide]	1500 nM
CC(C)C(C(=O)N[C@H]1CC[C@@H]2CN(CCCc3ccc(C(F)(F)F)cc3)C[C@@H]21)c1ccccc1 (stereo partly drawn) [Example 115, 3-methyl-2-phenyl-N-((3aR,4S,6aS)-2-{3-[4-(trifluoromethyl)phenyl]propyl}octahydrocyclopenta[c]pyrrol-4-yl)butanamide]	1200 nM
CC(=O)N(C)[C@@H](CC(C)C)C(=O)N[C@H]1CC[C@H]2CN(Cc3cccc(C(F)(F)F)c3)C[C@H]21 [Example 175, N^2-acetyl-N^2-methyl-N^1-{(3aS,4S,6aR)-2-[3-(trifluoromethyl)benzyl]octahydrocyclopenta[c]pyrrol-4-yl}-L-leucinamide]	1500 nM
O=S(=O)(N[C@@H]1CC[C@@H]2CN(Cc3cccc(C(F)(F)F)c3)C[C@@H]21)c1cccc(C(F)(F)F)c1 [Example 188, 3-(trifluoromethyl)-N-{(3aR,4R,6aS)-2-[3-(trifluoromethyl)benzyl]octahydrocyclopenta[c]pyrrol-4-yl}benzenesulfonamide]	800 nM
O=S(=O)(N[C@@H]1CC[C@H]2CN(Cc3ccccc3)C[C@H]21)c1cccc(C(F)(F)F)c1 [Example 190, N-[(3aS,4R,6aR)-2-benzyloctahydrocyclopenta[c]pyrrol-4-yl]-3-(trifluoromethyl)benzenesulfonamide]	1300 nM
O=S(=O)(N[C@@H]1CC[C@H]2CN(Cc3ccc(C(F)(F)F)c(F)c3)C[C@H]21)c1cccc(C(F)(F)F)c1 [Example 194, N-{(3aS,4R,6aR)-2-[3-fluoro-4-(trifluoromethyl)benzyl]octahydrocyclopenta[c]pyrrol-4-yl}-3-(trifluoromethyl)benzenesulfonamide]	1400 nM
O=C(N[C@H]1CC[C@H]2CN(S(=O)(=O)c3cccc(C(F)(F)F)c3)C[C@H]21)C(C1CCCCC1)C1CCCCC1 [Example 205, 2,2-dicyclohexyl-N-((3aS,4S,6aR)-2-{[3-(trifluoromethyl)phenyl]sulfonyl}octahydrocyclopenta[c]pyrrol-4-yl)acetamide]	3400 nM
O=C(N[C@H]1CC[C@H]2CN(S(=O)(=O)CCc3cccc4ccccc34)C[C@H]21)C(C1CCCCC1)C1CCCCC1 [Example 207, 2,2-dicyclohexyl-N-((3aS,4S,6aR)-2-{[2-(1-naphthyl)ethyl]sulfonyl}octahydrocyclopenta[c]pyrrol-4-yl)acetamide]	> 100000 nM
O=C(N[C@H]1CC[C@H]2CN(S(=O)(=O)CCc3ccc(F)cc3)C[C@H]21)C(C1CCCCC1)C1CCCCC1 [Example 209, 2,2-dicyclohexyl-N-((3aS,4S,6aR)-2-{[2-(4-fluorophenyl)ethyl]sulfonyl}octahydrocyclopenta[c]pyrrol-4-yl)acetamide]	> 100000 nM

The remaining lines, values ahead:

IC50	SMILES
800 nM	O=C(N[C@H]1CC[C@H]2CN(Cc3cccc(C(F)(F)F)c3)C[C@H]21)C(O)(C1CCCCC1)C1CCCCC1 [Example 152, 2,2-dicyclohexyl-2-hydroxy-N-{(3aS,4S,6aR)-2-[3-(trifluoromethyl)benzyl]octahydrocyclopenta[c]pyrrol-4-yl}acetamide]
400 nM	CC(C)C[C@@H](C(=O)N[C@H]1CC[C@H]2CN(Cc3cccc(C(F)(F)F)c3)C[C@H]21)N(C)C(=O)OC(C)(C)C [Example 153, N^2-(tert-butyloxycarbonyl)-N^2-methyl-N^1-{(3aS,4S,6aR)-2-[3-(trifluoromethyl)benzyl]octahydrocyclopenta[c]pyrrol-4-yl}-L-leucinamide]
> 100000 nM	O=C(N[C@H]1CC[C@H]2CN(S(=O)(=O)CCc3ccccc3)C[C@H]21)C(C1CCCCC1)C1CCCCC1 [Example 206, 2,2-dicyclohexyl-N-{(3aS,4S,6aR)-2-[(2-phenylethyl)sulfonyl]octahydrocyclopenta[c]pyrrol-4-yl}acetamide]
> 100000 nM	O=C(N[C@H]1CC[C@H]2CN(S(=O)(=O)Cc3cccc(C(F)(F)F)c3)C[C@H]21)C(C1CCCCC1)C1CCCCC1 [Example 208, 2,2-dicyclohexyl-N-((3aS,4S,6aR)-2-{[3-(trifluoromethyl)benzyl]sulfonyl}octahydrocyclopenta[c]pyrrol-4-yl)acetamide]

Same assay, conditions: IMR-32, @ 10 μM, 3 minute pre-incubation (*), read-out: percent inhibition

inhibition at 10 µM	SMILES
79%	CC(C)C(C(=O)N[C@H]1CC[C@@H]2CN(CCc3ccccc3)C[C@@H]21)c1ccccc1 (stereo partly drawn) [Example 104, 3-methyl-2-phenyl-N-[(3aR,4S,6aS)-2-(2-phenylethyl)octahydrocyclopenta[c]pyrrol-4-yl]butanamide]

— patent US8129417B2, “Substituted octahydrocyclopenta[C]pyrrol-4-amines as calcium channel blockers” (Abbott Laboratories, priority 2008, dated 2012)
